Measured values from US12459891B2, “1-[1-(4-benzyloxy-3,5-difluoro-benzoyl)-4-fluoro-pyrrolidine-2-carbonyl]-pyrrolidine-2-carbonitrile” (ACCURE THERAPEUTICS, S.L., priority 2020, dated 2025).

Experiments:
Caco-2 cells = assay: Caco-2 permeability assay (apical to basal); type: in vitro ADME, human; settings: 50 μM, 2 hours at 37° C.
From the text: Caco-2 cells are widely used as an in vitro model for prediciting human drug absorption. The Caco-2 cell line is derived from human colorectal carcinoma, and when cultured, the cells spontaneously differentiate into monolayers of polarized enterocytes.
Experiments were done using the CacoReay permeability kit (ReadyCell, Barcelona, Spain).
On the same week of the reception of the kit, the shipping medium of the cells was liquefied according to user's manual provided with the kit, after which the shipping medium was replaced with fresh Dulbecco's Modified Eagle's Medium (DMEM, low-glucose).
Three days later, equivalent to day 20 of cell culture, the quality of the barrier system and the presence of tight junctions between the cells was checked by measuring the trans endothelial electrical resistance (TEER) of the cell barrier. […]
For the transport experiments (apical to basal), the cells were incubated with the solutions containing the compounds for 2 hours at 37° C. Afterwards, the content of the compartments was recovered and analyzed by HPLC (Column C18 Sunfire 100 mm×4.6 mm, […], 100 Å, Waters; Flow rate 1 mL/min; Gradient 0-100% B in 8 min A=0.045% Trifluoracetic acid in H2O and B 0.036% Trifluoracetic acid in acetonitrile, detection at 220 nm). […]
In the Caco-2 permeability assay, the percentage of transport (T %) for the compounds was calculated according to the following equation: […]

MK-801-treated mice = assay: Novel object recognition (NOR) task, MK-801-induced cognitive deficit; type: in vivo, male C57/Bl6 mice; settings: for % discrimination index: mean ± s.e.m.
5-HT1A receptor = target: T1, 5-HT1A receptor (Homo sapiens, UniProt P08908); assay: Selectivity profile, radioligand binding (SafetyScreen44 panel); settings: 100 μM compound (1% DMSO); read-out: % inhibition of control specific binding
T1 construct: purchased Cerep/Eurofins SafetyScreen44 panel
T1 sequence (P08908 1-422): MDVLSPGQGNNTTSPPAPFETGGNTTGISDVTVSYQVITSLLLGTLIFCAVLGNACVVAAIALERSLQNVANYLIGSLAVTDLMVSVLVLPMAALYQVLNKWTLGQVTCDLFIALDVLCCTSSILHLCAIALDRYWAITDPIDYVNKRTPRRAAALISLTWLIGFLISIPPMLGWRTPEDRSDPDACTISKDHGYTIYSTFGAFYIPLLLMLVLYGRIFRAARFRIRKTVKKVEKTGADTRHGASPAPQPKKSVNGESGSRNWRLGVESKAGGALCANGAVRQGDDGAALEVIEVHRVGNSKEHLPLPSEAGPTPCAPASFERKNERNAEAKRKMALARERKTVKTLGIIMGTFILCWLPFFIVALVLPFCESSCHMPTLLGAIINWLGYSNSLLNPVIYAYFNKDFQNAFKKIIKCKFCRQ
Protocol: The experiment was performed using the SafetyScreen44® panel from Cerep/Eurofins. Compounds were tested at a concentration 100 μM (in 1% DSMO).
Compound binding was calculated as a percentage inhibition of the binding of a radioactively labeled ligand specific for each target.
The results are expressed as a percent inhibition of control specific binding
[formula] obtained in the presence of tested compounds.
Results showing an inhibition higher than 50% are considered to represent significant effects of the test compounds.

[1] = compound 5 mg/kg intraperitoneal 35 min before test + MK 801 0.2 mg/kg sc
[2] = compound 5 mg/kg oral (po) 35 min before test + MK 801 0.2 mg/kg sc

| Compound | % T (percentage of transport), Caco-2 (Caco-2 cells) [%] | % discrimination index (MK-801-treated mice; [1]) [%] | % discrimination index (MK-801-treated mice; [2]) [%] | inhibition at 100 µM (5-HT1A receptor) [%] | Efficacy after oral administration (in words) (MK-801-treated mice; oral administration) |
| --- | --- | --- | --- | --- | --- |
| N#C[C@@H]1CCCN1C(=O)[C@@H]1C[C@@H](F)CN1C(=O)c1cc(F)c(OCc2ccccc2)c(F)c1 [Example 1, (S)-1-((2S,4R)-1-(4-(benzyloxy)-3,5-difluorobenzoyl)-4-fluoropyrrolidine-2-carbonyl)pyrrolidine-2-carbonitrile] | 45 | 30.3 ± 3.9 | 42.1 ± 5.1 | -6.3 |  |
| COc1cc(C(=O)N2CC(F)(F)C[C@H]2C(=O)N2CCC[C@H]2C#N)cc(OC)c1OCc1ccccc1 [Comp Ex. 3, (S)-1-((2S)-1-(4-(benzyloxy)-3,5-dimethoxybenzoyl)-4,4-difluoropyrrolidine-2-carbonyl)pyrrolidine-2-carbonitrile] | 5.7 | 42.7 ± 3.3 | 20.1 ± 2.9 | 64.6 | no efficacy |
